In paper PMC11111408, “Concurrent inhibition of oncogenic and wild-type RAS-GTP for cancer therapy” (Nature, 2024):

Tested on: PRISM DNA-barcoded human tumour cell lines
Test: PRISM pooled cell viability assay;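 for Area under the curve (AUC): 8 threefold dilutions from 10 µM with 5 days of exposure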;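 for PRISM AUC: 8 threefold dilutions from 10 µM with 5 days of exposure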
Type: cell-based
Parameters: Area under the curve (AUC): scale not given here; AUC (PRISM viability) / AUC (PRISM): unit not given beside the values
Settings: for AUC (PRISM): BRAF class I; for PRISM AUC: KRAS MUT; for AUC (PRISM viability): WT
Method: Cells were then lysed in TCL mRNA lysis buffer, and then PCR with reverse transcription was performed. Detection of the barcodes and univariate and multivariate analysis was then performed as previously described. Data analysis is described in the Supplementary Methods. Up-to-date code for our analysis is at the github link: https://github.com/cmap/dockerized_mts.
For every gene with non-silent mutations in at least four cell-lines, we compared the AUC values between cells with and without those mutations using a t-test. This analysis was carried out for: (i) the full dataset; (ii) excluding cell lines with non-silent KRAS mutations; and (iii) excluding cell lines that have either KRAS or NRAS non-silent mutations.

[1] = DND41_HAEMATOPOIETIC_AND_LYMPHOID_TISSUE

CCn1c(-c2cc(N3CCN(C4CC4)CC3)cnc2[C@H](C)OC)c2c3cc(ccc31)-c1csc(n1)C[C@H](NC(=O)[C@H]1[C@@H]3COC[C@@H]31)C(=O)N1CCC[C@H](N1)C(=O)OCC(C)(C)C2 [RMC-7977]
Area under the curve (AUC) (42MGBA_CENTRAL_NERVOUS_SYSTEM): 0.8215 | Area under the curve (AUC) (253JBV_URINARY_TRACT): 0.7547 | Area under the curve (AUC) (639V_URINARY_TRACT): 0.5786 | Area under the curve (AUC) (647V_URINARY_TRACT): 0.793 | Area under the curve (AUC) (697_HAEMATOPOIETIC_AND_LYMPHOID_TISSUE): 0.7402 | Area under the curve (AUC) (769P_KIDNEY): 0.9025 | Area under the curve (AUC) (786O_KIDNEY): 0.9593 | Area under the curve (AUC) (5637_URINARY_TRACT): 0.5198 | Area under the curve (AUC) (8305C_THYROID): 0.8425 | AUC (PRISM) (A101D_SKIN): 0.8318 | AUC (PRISM) (A375_SKIN): 0.8721 | PRISM AUC (A549_LUNG): 0.4422 | AUC (PRISM) (A1207_CENTRAL_NERVOUS_SYSTEM): 0.9848 | AUC (PRISM) (A2058_SKIN): 0.6601 | PRISM AUC (AGS_STOMACH): 0.2114 | PRISM AUC (ASPC1_PANCREAS): 0.2372 | PRISM AUC (CAL62_THYROID): 0.7922 | PRISM AUC (CALU1_LUNG): 0.3345 | Area under the curve (AUC) (CAOV3_OVARY): 0.8029 | Area under the curve (AUC) (CAPAN2_PANCREAS): 0.3724 | PRISM AUC (CAPAN2_PANCREAS): 0.2599 | Area under the curve (AUC) (CAS1_CENTRAL_NERVOUS_SYSTEM): 0.8726 | Area under the curve (AUC) (CASKI_CERVIX): 0.7017 | Area under the curve (AUC) (CBAGPN_BONE): 0.5843 | Area under the curve (AUC) (CCFSTTG1_CENTRAL_NERVOUS_SYSTEM): 0.8445 | Area under the curve (AUC) (CCK81_LARGE_INTESTINE): 0.8268 | Area under the curve (AUC) (CCLP1_BILIARY_TRACT): 0.6816 | Area under the curve (AUC) (CCSW1_BILIARY_TRACT): 0.6555 | Area under the curve (AUC) (CFPAC1_PANCREAS): 0.5351 | PRISM AUC (CFPAC1_PANCREAS): 0.2506 | Area under the curve (AUC) (CH157MN_CENTRAL_NERVOUS_SYSTEM): 0.6397 | Area under the curve (AUC) (CHAGOK1_LUNG): 0.489 | Area under the curve (AUC) (CHL1_SKIN): 0.6244 | Area under the curve (AUC) (CHLA06ATRT_SOFT_TISSUE): 0.5593 | Area under the curve (AUC) (CHLA10_BONE): 0.7982 | Area under the curve (AUC) (CHLA15_AUTONOMIC_GANGLIA): 0.6039 | Area under the curve (AUC) (CHLA57_BONE): 0.7007 | Area under the curve (AUC) (CHLA200_CENTRAL_NERVOUS_SYSTEM): 0.6544 | Area under the curve (AUC) (CJM_SKIN): 0.5835 | Area under the curve (AUC) (CL11_LARGE_INTESTINE): 0.4982 | Area under the curve (AUC) (CMLT1_HAEMATOPOIETIC_AND_LYMPHOID_TISSUE): 0.6333 | Area under the curve (AUC) (COGAR359_SOFT_TISSUE): 0.7818 | Area under the curve (AUC) (COGE352_BONE): 0.9516 | Area under the curve (AUC) (COGN278_AUTONOMIC_GANGLIA): 0.4846 | Area under the curve (AUC) (COLO320_LARGE_INTESTINE): 0.6681 | Area under the curve (AUC) (COLO668_LUNG): 0.6484 | PRISM AUC (COLO668_LUNG): 0.815 | Area under the curve (AUC) (COLO678_LARGE_INTESTINE): 0.7153 | Area under the curve (AUC) (COLO679_SKIN): 0.858 | Area under the curve (AUC) (COLO680N_OESOPHAGUS): 0.6858 | Area under the curve (AUC) (COLO741_SKIN): 1 | Area under the curve (AUC) (COLO783_SKIN): 0.8893 | Area under the curve (AUC) (COLO792_SKIN): 0.7007 | Area under the curve (AUC) (COLO800_SKIN): 0.7125 | Area under the curve (AUC) (CORL23_LUNG): 0.5921 | PRISM AUC (CORL23_LUNG): 0.1909 | Area under the curve (AUC) (CORL88_LUNG): 0.5624 | Area under the curve (AUC) (CORL105_LUNG): 0.7085 | Area under the curve (AUC) (CORL279_LUNG): 0.7248 | Area under the curve (AUC) (COV318_OVARY): 0.8633 | Area under the curve (AUC) (COV362_OVARY): 0.7849 | Area under the curve (AUC) (COV434_OVARY): 0.99 | Area under the curve (AUC) (COV644_OVARY): 0.7771 | Area under the curve (AUC) (CW2_LARGE_INTESTINE): 0.99 | Area under the curve (AUC) (CW9019_SOFT_TISSUE): 0.6651 | Area under the curve (AUC) (DANG_PANCREAS): 0.3955 | PRISM AUC (DANG_PANCREAS): 0.2087 | Area under the curve (AUC) (DAOY_CENTRAL_NERVOUS_SYSTEM): 0.7146 | Area under the curve (AUC) (DBTRG05MG_CENTRAL_NERVOUS_SYSTEM): 0.9233 | Area under the curve (AUC) (DEL_HAEMATOPOIETIC_AND_LYMPHOID_TISSUE): 0.7782 | Area under the curve (AUC) (DETROIT562_UPPER_AERODIGESTIVE_TRACT): 0.4955 | Area under the curve (AUC) (DKMG_CENTRAL_NERVOUS_SYSTEM): 0.9357 | Area under the curve (AUC) (DL_SOFT_TISSUE): 0.5482 | Area under the curve (AUC) (DMS53_LUNG): 0.9195 | Area under the curve (AUC) (DMS79_LUNG): 0.9708 | Area under the curve (AUC) (DMS273_LUNG): 0.8299 | Area under the curve (AUC) [1]: 0.662 | PRISM AUC [1]: 0.4904 | Area under the curve (AUC) (DOHH2_HAEMATOPOIETIC_AND_LYMPHOID_TISSUE): 0.794 | Area under the curve (AUC) (DOTC24510_CERVIX): 0.5479 | Area under the curve (AUC) (DU145_PROSTATE): 0.7717 | Area under the curve (AUC) (DU4475_BREAST): 0.7278 | Area under the curve (AUC) (DV90_LUNG): 0.3742 | PRISM AUC (DV90_LUNG): 0.1773 | Area under the curve (AUC) (EB1_HAEMATOPOIETIC_AND_LYMPHOID_TISSUE): 0.7516 | Area under the curve (AUC) (EBC1_LUNG): 0.4773 | Area under the curve (AUC) (ECC2_BILIARY_TRACT): 0.751 | Area under the curve (AUC) (ECC10_STOMACH): 0.6145 | Area under the curve (AUC) (ECGI10_OESOPHAGUS): 0.5375 | Area under the curve (AUC) (EFE184_ENDOMETRIUM): 0.7163 | Area under the curve (AUC) (EFM19_BREAST): 0.9395 | Area under the curve (AUC) (EFM192A_BREAST): 1 | Area under the curve (AUC) (EFO21_OVARY): 0.6416 | Area under the curve (AUC) (EFO27_OVARY): 0.6995 | Area under the curve (AUC) (EGI1_BILIARY_TRACT): 0.5258 | Area under the curve (AUC) (EKVX_LUNG): 0.7007 | Area under the curve (AUC) (EM2_HAEMATOPOIETIC_AND_LYMPHOID_TISSUE): 0.5861 | Area under the curve (AUC) (EMTOKA_ENDOMETRIUM): 0.6769 | Area under the curve (AUC) (EN_ENDOMETRIUM): 0.882 | Area under the curve (AUC) (ES2_OVARY): 0.9145 | Area under the curve (AUC) (ESS1_ENDOMETRIUM): 0.5647 | Area under the curve (AUC) (EW8_BONE): 0.6981 | Area under the curve (AUC) (EWS502_BONE): 0.6483 | Area under the curve (AUC) (FADU_UPPER_AERODIGESTIVE_TRACT): 0.6687 | Area under the curve (AUC) (FLO1_OESOPHAGUS): 1 | Area under the curve (AUC) (FTC133_THYROID): 0.5671 | Area under the curve (AUC) (FTC238_THYROID): 0.9611 | Area under the curve (AUC) (G292CLONEA141B1): 0.925 | Area under the curve (AUC) (G292CLONEA141B1_BONE): 0.8311 | Area under the curve (AUC) (G361_SKIN): 1 | Area under the curve (AUC) (G401_SOFT_TISSUE): 0.9104 | Area under the curve (AUC) (G402_SOFT_TISSUE): 0.9029 | Area under the curve (AUC) (G415_BILIARY_TRACT): 0.596 | Area under the curve (AUC) (GAMG_CENTRAL_NERVOUS_SYSTEM): 0.6539 | Area under the curve (AUC) (GB1_CENTRAL_NERVOUS_SYSTEM): 1 | Area under the curve (AUC) (GB2_BILIARY_TRACT): 0.5045 | PRISM AUC (GP2D_LARGE_INTESTINE): 0.4036 | PRISM AUC (GSU_STOMACH): 0.1903 | PRISM AUC (HCC44_LUNG): 0.3549 | PRISM AUC (HCC56_LARGE_INTESTINE): 0.1735 | PRISM AUC (HCT15_LARGE_INTESTINE): 0.6069 | PRISM AUC (HCT116_LARGE_INTESTINE): 0.4206 | PRISM AUC (HEC1A_ENDOMETRIUM): 0.5452 | PRISM AUC (HEC1B_ENDOMETRIUM): 0.557 | PRISM AUC (HEYA8_OVARY): 0.3651 | PRISM AUC (HMC18_BREAST): 0.1236 | PRISM AUC (HPAC_PANCREAS): 0.2345 | PRISM AUC (HPAFII_PANCREAS): 0.1832 | AUC (PRISM viability) (HT29_LARGE_INTESTINE): 0.9401 | AUC (PRISM viability) (HT55_LARGE_INTESTINE): 0.5483 | AUC (PRISM viability) (HT144_SKIN): 0.8437 | AUC (PRISM viability) (HT_HAEMATOPOIETIC_AND_LYMPHOID_TISSUE): 0.5864 | PRISM AUC (HUCCT1_BILIARY_TRACT): 0.2016
